Data taken from EP4656642A1, “ESTROGEN RECEPTOR PROTEOLYSIS TARGETING CHIMERA COMPOUND AND USE THEREOF” (GAN & LEE PHARM CO., LTD, priority 2023, dated 2024).
pIC50: −log10 of the molar value.

Experiments:
Format in all cases: cell-based
ERα [1] = biological target: T1, ERα (Homo sapiens, UniProt P03372); assay: Degradation of ERα in T-47D cells (immunoblotting, 4 h); set-up: host or cells: T-47D
T1 sequence (P03372 1-595): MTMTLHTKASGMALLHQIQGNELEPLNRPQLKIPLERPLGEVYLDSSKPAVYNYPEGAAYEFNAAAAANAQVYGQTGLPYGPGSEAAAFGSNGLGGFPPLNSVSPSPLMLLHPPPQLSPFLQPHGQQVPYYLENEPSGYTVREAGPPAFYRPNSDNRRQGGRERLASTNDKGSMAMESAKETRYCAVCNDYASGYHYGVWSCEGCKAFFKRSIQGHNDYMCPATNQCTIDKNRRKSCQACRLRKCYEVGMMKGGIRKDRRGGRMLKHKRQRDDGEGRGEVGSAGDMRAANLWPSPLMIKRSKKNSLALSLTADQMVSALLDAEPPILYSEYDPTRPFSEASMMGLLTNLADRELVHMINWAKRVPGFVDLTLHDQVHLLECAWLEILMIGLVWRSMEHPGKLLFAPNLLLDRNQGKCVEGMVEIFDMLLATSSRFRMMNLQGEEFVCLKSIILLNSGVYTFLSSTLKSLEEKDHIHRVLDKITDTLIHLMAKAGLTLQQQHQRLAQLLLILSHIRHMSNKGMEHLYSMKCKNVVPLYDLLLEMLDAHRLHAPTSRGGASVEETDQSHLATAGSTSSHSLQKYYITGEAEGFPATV
Procedure, shortened: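 ERα protein levels were assessed by immunoblot of RIPA lysates (with protease inhibitor) after 4 h exposure at 37°C. Compound was added in DMSO to T-47D cells at final concentrations of 0.15-1000 nM.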

ERα [2] = biological target: T1, ERα; assay: Degradation of ERα in MCF-7 cells (immunoblotting, 4 h)
Procedure, shortened: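 Degradation rate reflects ERα band intensity, corrected to an internal reference protein, relative to control. Values come from Western blotting of lysates from MCF-7 cells exposed 4 h at 37°C to compounds at final concentrations of 0.15-1000nM.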

T-47D cells = assay: Inhibition of cell proliferation in T-47D cells (CCK-8, 6 days); conditions: 6 days of treatment
Procedure, shortened: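 Viability read-out was CCK-8 after 6 days of compound treatment (37 °C, 5% CO2) across graded concentrations. Cells were T-47D seeded at 3,000 per well in 1640 medium plus 10% FBS. IC50 was calculated against proliferation.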

MCF-7 cells = assay: Inhibition of cell proliferation of MCF-7 cells (CCK-8, 9 days)
Procedure, shortened: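 Read-out was CCK-8 viability after 9-day continuous exposure (37°C, 5% CO2) of MCF-7 cells plated at 800/well in 10% FBS DMEM across several compound concentrations. Values are proliferation IC50s.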

[3] = treated for 9 days, CCK-8 kit (Table 6)

Row | SMILES | Degradation rate (%) of ERα in T-47D cells (ERα [1]; 1nM compound) [%] | Degradation rate (%) of ERα in T-47D cells (ERα [1]; 10nM compound) [%] | Degradation rate (%) of ERα in MCF-7 cells (ERα [2]; 1nM compound) [%] | Degradation rate (%) of ERα in MCF-7 cells (ERα [2]; 10nM compound) [%] | pIC50 (T-47D cells; Table 3) | pIC50 (MCF-7 cells; [3]) | pIC50 (T-47D cells; Table 2) | pIC50 (MCF-7 cells; 9 days of treatment, CCK-8, Table 5)
1 | O=C1CCC(N2Cc3c(ccc4c3OCC43CCN(CCN4CCN(c5ccc([C@@H]6c7ccc(O)cc7CC[C@@H]6c6ccccc6)cc5)CC4)CC3)C2=O)C(=O)N1 (stereo partly drawn) [H20] | 13 | -14 | -18 | -14 | 8.91 | 5.88 | – | –
2 | O=C1CCC(N2Cc3ccc4c(c3C2=O)OCC42CCN(C3CC4(CCN(c5ccc([C@@H]6c7ccc(O)cc7CC[C@@H]6c6ccccc6)cc5)CC4)C3)CC2)C(=O)N1 (stereo partly drawn) [L26] | -11 | 30 | 10 | 18 | 8.19 | 6.08 | – | –
3 | O=C1CCC(N2C(=O)c3cc4c(cc3C2=O)OC2(CC4)CCN(CC3CCC4(CC3)CCN(c3ccc([C@@H]5c6ccc(O)cc6CC[C@@H]5c5ccccc5)cc3)CC4)CC2)C(=O)N1 (stereo partly drawn) [A43] | 7 | 26 | -2 | -8 | 7.39 | 7.21 | – | –
4 | O=C1CCC(N2Cc3cc4c(cc3C2=O)CCC2(CN(C3CCC5(CC3)CCN(c3ccc([C@@H]6c7ccc(O)cc7CC[C@@H]6c6ccccc6)cc3)CC5)C2)O4)C(=O)N1 (stereo partly drawn) [A33] | 12 | 56 | -7 | 26 | – | – | 8.04 | 7.52
5 | O=C1CCC(N2Cc3c(ccc4c3OCC43CCN(C4CCN(C5CCN(c6ccc([C@@H]7c8ccc(O)cc8CC[C@@H]7c7ccccc7)cc6)CC5)CC4)CC3)C2=O)C(=O)N1 (stereo partly drawn) [A54] | 15 | 62 | 40 | 65 | 8.21 | > 9.59 | – | –
6 | CC1CN(C2CCN(c3ccc([C@@H]4c5ccc(O)cc5CC[C@@H]4c4ccccc4)cc3)CC2)CCC1N1CCC2(CC1)COc1c2ccc2c1CN(C1CCC(=O)NC1=O)C2=O (stereo partly drawn) [K19] | 21 | 56 | 32 | 63 | 8.27 | 7.31 | – | –
7 | O=C1CCC(N2Cc3cc4c(cc3C2=O)OC2(CC4)CCN(CC3CCC4(CC3)CCN(c3ccc([C@@H]5c6ccc(O)cc6CC[C@@H]5c5ccccc5)cc3)CC4)CC2)C(=O)N1 (stereo partly drawn) [A40] | 6 | 25 | 15 | 35 | 7.89 | 7.12 | – | –
8 | O=C1CCC(N2Cc3c(ccc4c3OCC43CCN(C4CCN(C(=O)C5CC6(CCN(c7ccc([C@@H]8c9ccc(O)cc9CC[C@@H]8c8ccccc8)cc7)CC6)C5)CC4)CC3)C2=O)C(=O)N1 (stereo partly drawn) [A85] | 68 | 88 | 45 | 65 | 8.95 | 5.01 | – | –
9 | C[C@@H]1CN(C(=O)C2CCN(c3cc(F)c(C4c5ccc6[nH]ncc6c5C[C@@H](C)N4CC(F)F)c(F)c3)CC2)CCC1N1CCC2(CC1)COc1c2ccc2c1CN(C1CCC(=O)NC1=O)C2=O (stereo partly drawn) [B40] | 64 | 68 | 54 | 61 | 9.00 | 7.34 | – | –
10 | O=C1CCC(N2C(=O)c3ccc4c(c3C2=O)OCC42CCN(C3CCN(C(=O)C4CCN(c5ccc([C@@H]6c7ccc(O)cc7CC[C@@H]6c6ccccc6)cc5)CC4)CC3)CC2)C(=O)N1 (stereo partly drawn) [H27] | 36 | 78 | 11 | 46 | 8.33 | 6.10 | – | –
11 | O=C1CCC(N2Cc3c(ccc4c3OCC43CCN(CC(=O)N4CC[C@]5(CCN(c6ccc([C@@H]7c8ccc(O)cc8CC[C@@H]7c7ccccc7)cc6)C5)C4)CC3)C2=O)C(=O)N1 (stereo partly drawn) [H23] | 50 | 68 | 44 | 51 | 8.80 | 8.04 | – | –
12 | CCN(CC1CCN(c2ccc([C@@H]3c4ccc(O)cc4CC[C@@H]3c3ccccc3)cc2)CC1)[C@H]1CC[C@@H](C(=O)N2CCC3(CC2)COc2c3ccc3c2CN(C2CCC(=O)NC2=O)C3=O)CC1 (stereo partly drawn) [N8] | 21 | 55 | -2 | 31 | 8.18 | 4.60 | – | –
13 | O=C1CCC(N2Cc3c(ccc4c3OCC43CCN(C(=O)C4CC5(CCN(c6ccc([C@@H]7c8ccc(O)cc8CC[C@@H]7c7ccccc7)cc6)CC5)C4)CC3)C2=O)C(=O)N1 (stereo partly drawn) [A86] | 46 | 74 | 5 | 32 | 8.79 | 7.07 | – | –
14 | O=C1CCC(N2Cc3c(ccc4c3OCC43CCN(CC4CCN(c5ccc([C@@H]6c7ccc(O)cc7CC[C@@H]6c6ccccc6)cc5)CC4)CC3)C2=O)C(=O)N1 (stereo partly drawn) [H8] | -20 | -37 | -23 | -48 | 7.50 | 4.57 | – | –
15 | O=C1CCC(N2Cc3cc4c(cc3C2=O)CCC2(CN(C3CCC(N5CCN(c6ccc([C@@H]7c8ccc(O)cc8CC[C@@H]7c7ccccc7)cc6)CC5)CC3)C2)O4)C(=O)N1 (stereo partly drawn) [B15] | -4 | 3 | -13 | -18 | 7.50 | 7.32 | – | –
16 | O=C1CCC(N2Cc3cc4c(cc3C2=O)CCC2(CN(CC3CCC5(CC3)CN(c3ccc([C@@H]6c7ccc(O)cc7CC[C@@H]6c6ccccc6)cc3)C5)C2)O4)C(=O)N1 (stereo partly drawn) [M15] | -15 | 13 | -23 | -24 | 8.22 | 7.32 | – | –
17 | O=C1CCC(N2Cc3c(ccc4c3OCC43CCN(C4CCN(C(=O)C5CCN(c6ccc([C@@H]7c8ccc(O)cc8CC[C@@H]7c7ccccc7)cc6)CC5)[C@@H](C(=O)N5CCC(F)(F)CC5)C4)CC3)C2=O)C(=O)N1 (stereo partly drawn) [C1] | 50 | 72 | 18 | 49 | 8.94 | 8.09 | – | –
